A short description of the test: Antagonist activity at CCR5 in allo T cells assessed as inhibition of MIP-1beta-induced chemotaxis.

Drawing on BindingDB's records for doi:10.1016/j.bmcl.2011.12.117 (Astrazeneca, 2012), this text covers IC50 for one compound.

The structures appear in SMILES notation.

For the compound `CCN(C(=O)Cc1ccc(S(C)(=O)=O)cc1)C1CCN(CC[C@@H](c2cc(F)cc(F)c2)C2CCN(S(C)(=O)=O)CC2)CC1`, the IC50 was determined as 0.69 nM.
